Experimental data taken from the NIST ThermoML archive (doi:10.1021/je030133a).
Where “and” joins values, the source holds several entries; their conditions need not be identical. Equal entries are not always repeated.

How the values were obtained:
[1] = 101.3 kPa, Liquid
[2] = xn = mol fraction of the nth substance listed; conditions: 101.3 kPa, Liquid

C1COCCO1 [1,4-dioxane]
[1]
Conditions | mass density [kg/m3] | viscosity
303.15 K | 1022.3 | 1.099 mPa·s and 1.098 mPa·s
308.15 K | 1016.7 | 1.03 mPa·s
313.15 K | 1012 | 0.9575 mPa·s

C1COCCO1 [1,4-dioxane] + CCCCO
[2]
Conditions | mass density, 303.15 K [kg/m3] | mass density, 308.15 K [kg/m3] | mass density, 313.15 K [kg/m3] | viscosity, 303.15 K [mPa·s] | viscosity, 308.15 K [mPa·s] | viscosity, 313.15 K [mPa·s]
x1 = 0.1066 | 826.5 | 818.4 | 816.8 | 2.011 | 1.683 | 1.522
x1 = 0.2116 | 847.6 | 839.9 | 837.9 | 1.635 | 1.362 | 1.281
x1 = 0.3151 | 868.6 | 861.3 | 859 | 1.37 | 1.165 | 1.094
x1 = 0.4171 | 889.9 | 882.7 | 880.2 | 1.243 | 1.081 | 0.9963
x1 = 0.5177 | 911.3 | 904.3 | 901.5 | 1.164 | 1.032 | 0.9565
x1 = 0.6169 | 932.8 | 926.2 | 923.1 | 1.093 | 1.007 | 0.9426
x1 = 0.6659 | 943.6 | 937.3 | 934 | 1.064 | 0.9903 | 0.9289
x1 = 0.7146 | 954.6 | 948.4 | 945.2 | 1.038 | 0.9768 | 0.919
x1 = 0.763 | 965.6 | 959.6 | 956.3 | 1.016 | 0.9543 | 0.9043
x1 = 0.8111 | 976.7 | 971 | 967.4 | 1.015 | 0.9484 | 0.9234
x1 = 0.8588 | 987.9 | 982.3 | 978.6 | 1.031 | 0.9507 | 0.9384
x1 = 0.9062 | 999.2 | 993.6 | 989.7 | 1.065 | 0.9793 | 0.9315
x1 = 1 | 1022.3 | 1016.7 | 1012 | 1.098 | 1.03 | 0.9575

C1COCCO1 [1,4-dioxane] + ClC(Cl)(Cl)Cl
[2], x1 = 1
Conditions | mass density [kg/m3] | viscosity [mPa·s]
303.15 K | 1022.3 | 1.099
308.15 K | 1016.7 | 1.03
313.15 K | 1012 | 0.9575

CCCCO [butan-1-ol]
[1]
Conditions | mass density [kg/m3] | viscosity
303.15 K | 805.7 | 2.282 mPa·s
308.15 K | 797.2 | 1.907 mPa·s and 1.895 mPa·s
313.15 K | 795.5 | 1.681 mPa·s

CCCCO [butan-1-ol] + C1COCCO1
[2], x2 = 0
Conditions | mass density [kg/m3] | viscosity [mPa·s]
303.15 K | 805.7 | 2.282
308.15 K | 797.2 | 1.895
313.15 K | 795.5 | 1.681

CCCCO [butan-1-ol] + ClC(Cl)(Cl)Cl
[2], x2 = 0
Conditions | mass density [kg/m3] | viscosity [mPa·s]
303.15 K | 805.7 | 2.282
308.15 K | 797.2 | 1.907
313.15 K | 795.5 | 1.681

ClC(Cl)(Cl)Cl [tetrachloromethane]
[1]
Conditions | mass density | viscosity
303.15 K | 1580.6 kg/m3 | 0.8689 mPa·s
308.15 K | 1575.7 kg/m3 | 0.8307 mPa·s
313.15 K | 1570.9 kg/m3 and 1571.3 kg/m3 | 0.807 mPa·s and 0.8072 mPa·s

ClC(Cl)(Cl)Cl [tetrachloromethane] + C1COCCO1
[2]
Conditions | mass density, 303.15 K [kg/m3] | mass density, 308.15 K [kg/m3] | mass density, 313.15 K [kg/m3] | viscosity, 303.15 K [mPa·s] | viscosity, 308.15 K [mPa·s] | viscosity, 313.15 K [mPa·s]
x2 = 0 | 1580.6 | 1575.7 | 1570.9 | 0.8689 | 0.8307 | 0.807
x2 = 0.1116 | 1520.6 | 1517.3 | 1513.2 | 0.945 | 0.8954 | 0.8454
x2 = 0.2204 | 1462.3 | 1458.6 | 1455.1 | 0.9938 | 0.9391 | 0.8848
x2 = 0.3265 | 1405.3 | 1401.1 | 1396.9 | 1.036 | 0.9771 | 0.9244
x2 = 0.4299 | 1349 | 1344.8 | 1340.9 | 1.073 | 1.01 | 0.9531
x2 = 0.5307 | 1294.3 | 1290.5 | 1286.9 | 1.11 | 1.044 | 0.9892
x2 = 0.6291 | 1240.9 | 1236.2 | 1232.5 | 1.136 | 1.066 | 1.008
x2 = 0.7252 | 1187.4 | 1182.4 | 1177.9 | 1.145 | 1.066 | 0.9996
x2 = 0.7724 | 1161.1 | 1155.9 | 1150.9 | 1.145 | 1.063 | 0.9971
x2 = 0.819 | 1134.4 | 1128.5 | 1123.2 | 1.139 | 1.058 | 0.9881
x2 = 0.865 | 1107.7 | 1101.6 | 1096 | 1.131 | 1.052 | 0.9836
x2 = 0.9105 | 1081 | 1074.7 | 1069.2 | 1.123 | 1.05 | 0.9785
x2 = 0.9555 | 1052.6 | 1046.5 | 1041.2 | 1.117 | 1.046 | 0.9667

ClC(Cl)(Cl)Cl [tetrachloromethane] + CCCCO
[2]
Conditions | mass density, 303.15 K [kg/m3] | mass density, 308.15 K [kg/m3] | mass density, 313.15 K [kg/m3] | viscosity, 303.15 K [mPa·s] | viscosity, 308.15 K [mPa·s] | viscosity, 313.15 K [mPa·s]
x1 = 0.0954 | 885 | 876 | 873.9 | 2.028 | 1.698 | 1.498
x1 = 0.1918 | 964.8 | 955.5 | 953 | 1.708 | 1.444 | 1.293
x1 = 0.2891 | 1044.5 | 1034.7 | 1031.7 | 1.496 | 1.276 | 1.172
x1 = 0.3875 | 1123.5 | 1113.8 | 1110.1 | 1.356 | 1.157 | 1.069
x1 = 0.4869 | 1201.2 | 1191.8 | 1187.6 | 1.248 | 1.096 | 1.038
x1 = 0.5874 | 1277.3 | 1268.5 | 1264.2 | 1.157 | 1.052 | 0.9981
x1 = 0.6889 | 1352.2 | 1344.8 | 1340.9 | 1.069 | 1.004 | 0.9502
x1 = 0.7401 | 1389.9 | 1382.7 | 1378.8 | 1.025 | 0.9705 | 0.9211
x1 = 0.7915 | 1427.1 | 1420.2 | 1415.9 | 1.005 | 0.9552 | 0.8947
x1 = 0.8432 | 1463.6 | 1457.8 | 1454.2 | 0.9778 | 0.9211 | 0.8727
x1 = 0.8952 | 1501.2 | 1495.7 | 1491.8 | 0.9554 | 0.8975 | 0.8612
x1 = 0.9475 | 1538.9 | 1534.3 | 1530.5 | 0.9164 | 0.8787 | 0.8346
x1 = 1 | 1580.6 | 1575.7 | 1571.3 | 0.8689 | 0.8307 | 0.8072
